Results published in PMC5550456, “Vitamin B12 as a carrier of peptide nucleic acid (PNA) into bacterial cells” (Scientific Reports, 2017).
Where no end group is shown, it is not given here.

Experiments:
[1] = cited from earlier work
From the text: (§1) The most serious drawback, which currently precludes the use of this approach, is poor delivery of the oligonucleotides into bacterial cells. The bacterial cell wall prevents the efficient uptake of short oligonucleotides from the environment[14] and non-invasive delivery of PNAs is extremely difficult. To overcome this problem, chemical conjugation of PNA to a variety of cell-penetrating peptides has been tested, [15], [16]. The most commonly used conjugate of PNA with the peptide (KFF)3K was delivered with high efficiency in vitro. However, the activity of (KFF)3K-PNA conjugates was drama ...

some mammalian cells = conditions: cited from earlier work
From the text: as §1

[2] = tested on: mRNA of the reporter gene mrfp1 expressing Red Fluorescent Protein; test: Inhibition of RFP synthesis (red fluorescence) in E. coli carrying pBBR(rfp); format: cell-based, Escherichia coli K-12 MG1655; conditions: overnight treatment, 0–16 µM
Method: E. coli TG1[58] was used for plasmid construction. For triparental mating, E. coli DH5α carried the helper plasmid pRK2013[59] and E. coli S17-1[60] was the mrfp1 plasmid donor. E. coli K-12 MG1655[61], and Salmonella enterica subsp. enterica serovar Typhimurium LT2-R (rifampicin resistant mutant of wild-type S. Typhimurium LT2[62]) were used in PNA delivery experiments. To prepare inocula, all strains were grown overnight in lysogeny broth (LB) at 37 °C with shaking. […] Cultures were supplemented with appropriate antibiotics to prevent plasmid loss.
The effect of the different PNA conjugates and controls on the red fluorescence of bacterial cells was determined using a standard microdilution method[67] in concentration range 0–16 µM. […] Following overnight incubation at 37 °C with shaking, the plates were vigorously shaken (double orbital) for 10 sec and then the cell density (OD600) and fluorescence (λ excitation – 584 nm; λ emission – 610 nm) were measured using a plate reader (Microplate Reader Biotek Synergy H1MFDG). The cell suspensions were also examined by light and fluorescence microscopy using a Nikon Eclipse Ni-U microscope (Figure S1).
To obtain relative fluorescence values (RFU), the background media noise was subtracted from each data point for both cell density (OD600) and fluorescence. […]

E. coli = test: Effect on bacterial growth (OD600) of E. coli; format: cell-based, Escherichia coli; conditions: up to the tested 16 μM concentrations
Method: (§2) The effect of the different PNA conjugates and controls on the red fluorescence of bacterial cells was determined using a standard microdilution method[67] in concentration range 0–16 µM. Cultures grown to exponential phase in Davis Minimal Broth were diluted to ~5 × 10^5 CFU/ml. These cell suspensions were added to wells of sterile 96-well plates containing different concentrations of the tested compounds. Following overnight incubation at 37 °C with shaking, the plates were vigorously shaken (double orbital) for 10 sec and then the cell density (OD600) and fluorescence (λ excitation – 584 nm; λ emission – 610 nm) were measured using a plate reader (Microplate Reader Biotek Synergy H1MFDG). The cell suspensions were also examined by light and fluorescence microscopy using a Nikon Eclipse Ni-U microscope (Figure S1).

S. Typhimurium = test: Effect on bacterial growth (OD600) of S. Typhimurium; format: cell-based, Salmonella Typhimurium; conditions: up to the tested 16 μM concentrations
Method: as §2

[3] = cited from earlier work; remark: listed apart in the source
Method: There was no decrease in OD600 upon overnight treatment with the conjugates (up to the tested 16 μM concentrations). Free vitamin B12 has no antibacterial activity at concentrations up to 100 μg/ml[52].

Substance	concentration with hemolytic activity [1] [ng/mL]	histamine release (some mammalian cells)	inhibition of RFP synthesis / mrfp1 expression (in words) [2]	bacterial growth, OD600 after overnight incubation (E. coli)	bacterial growth, OD600 after overnight incubation (S. Typhimurium)	concentration without antibacterial activity [3] [µg/mL]
KFFKFFKFFK-NH2 [(KFF)3K only]	40000	initiates histamine release	–	–	–	–
cyanocobalamin [vitamin B12]	–	–	Neither B12–(CH2)12-PNA(scrambled) (Fig. 6) nor free vitamin B12 (data not shown) had any inhibitory effect	slight increase of OD600	slight increase of OD600	> 100
